US12240828B2, “Heteroaromatic compounds as vanin inhibitors” (Boehringer Ingelheim International GmbH, priority 2018, dated 2025)

Legend:
[1] = target: T1, FLAG-tagged Vanin-1 (AA 22-493, T26I) (Homo sapiens, UniProt O95497, T26I); test: Vanin-1 enzymatic assay; assay type: biochemical; details: 0.1 nM Vanin-1, 3 μM D-pantethine, pantothenic acid formation by RapidFire MS; geometric mean if multiple measurements; read-out: VNN-1 IC50
T1 construct: FLAG-tagged Vanin-1 (AA 22-493, T26I, produced internally); FLAG; made in house
T1 sequence (O95497 22-493 T26I): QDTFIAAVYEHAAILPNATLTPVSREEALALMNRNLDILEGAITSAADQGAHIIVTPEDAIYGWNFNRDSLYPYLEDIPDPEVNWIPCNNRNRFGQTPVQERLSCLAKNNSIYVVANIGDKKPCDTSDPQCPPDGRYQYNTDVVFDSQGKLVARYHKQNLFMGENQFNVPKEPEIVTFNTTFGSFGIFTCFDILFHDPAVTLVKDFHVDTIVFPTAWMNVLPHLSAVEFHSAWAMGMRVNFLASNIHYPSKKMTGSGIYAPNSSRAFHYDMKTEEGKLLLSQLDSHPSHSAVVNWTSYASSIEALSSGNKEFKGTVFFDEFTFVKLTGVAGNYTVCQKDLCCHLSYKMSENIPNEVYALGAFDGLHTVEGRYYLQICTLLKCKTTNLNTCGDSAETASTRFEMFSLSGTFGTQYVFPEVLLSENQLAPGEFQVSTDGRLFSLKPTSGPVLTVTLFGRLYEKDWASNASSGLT
Experimental: The test compounds are dissolved in 100% DMSO at a concentration of 10 mM and in a first step diluted in DMSO to a concentration of 5 mM, followed by serial dilution steps in 100% DMSO. Dilution factor and number of dilution steps may vary according to needs. Typically 8 different concentrations by 1:5 dilutions are prepared, a further intermediate dilutions of the substances is carried out with assay buffer resulting in 1% final DMSO concentration in the assay.
0.1 nM of FLAG-tagged Vanin-1 (AA 22-493, T26I, produced internally) and test compounds are incubated at room temperature for 20 minutes in assay buffer (1 mM DTT, 0.0025% Brij-35, 50 mM HEPES, pH7.5). D-Pantethine (Sigma, Cat #P2125-5G) in assay buffer is added (final concentration 3 μM) and incubated for additional 30 minutes at room temperature. Total assay volume typically is 40 μl but might be adjusted according to needs. Reaction is stopped by adding equal volume of stop solution as the reaction mixture to reach 100 nM HD-pantothenic acid (as an internal standard) and 1% TFA. Assay plates are centrifuged for 2 minutes and the formation of pantothenic acid is detected by RapidFire Mass Spectrometry (mobile phase A: 0.1% formic acid and 0.01% trifluoroacetic acid in water; mobile phase B: 47.5% acetonitrile, 47.5% methanol, 0.1% formic acid and 0.01% trifluoroacetic acid in water) using a C18, 12 μL cartridge (Agilent Cat #G9205A).
The values given in Table I result from measurements of one or more samples. In case of multiple measurements the geometric mean values are given.

Pantetheinase (vanin) = test: Human Whole Blood assay; assay type: cell-based; details: pantethine substrate, pantothenic acid formation by RapidFire MS, read-out: HWB IC50
Experimental: Human Whole Blood assay: Pantetheinase (vanin) converts panteheine into pantothenic acid and cysteamine. Accordingly, in the described protocol vanin activity is quantified by formation of pantothenic acid after pantetheine supplementation via pantethine. The assay is applicable to identify vanin inhibitors. Compound stocks are dissolved in DMSO at 10 mM. Further dilutions are performed in RPMI 1640 medium (Gibco, #A-10491-01) and final concentrations in the assay are 0.032 nM-500 nM.
Human blood is drawn into a blood bag (1% heparin, 50 I.E./mL). Blood is aliquoted into cavities of 96-deep-well plates at 290 μL and mixed with 10 μL compound solution or vehicle (30 sec at 1400 rpm on a shaker). Equilibration follows at room temperature, 250 rpm and for 30 min. The assay is starts by adding 10 μL of substrate solution (20 μM pantethine in 1 mM DTT, 0.0025% Brij-35, 50 mM HEPES, pH7.5) to each well, except for some blank wells which receive […] substrate buffer (1 mM DTT, 0.0025% Brij-35, 50 mM HEPES, pH7.5) only. Samples are thoroughly shaken (30 sec, 1400 rpm) and reaction is allowed to take place at room temperature, 250 rpm and for 5 min. The reaction is stopped by addition of a vanin tool inhibitor in excess (BI-1 total conc. 10 μM). Centrifugation of the plate follows at 4° C., 665 G for 10 min. Then the blood plasma samples (100 μL) are transferred into another 96-deep-well plate and proteins are precipitated (5 min on ice) by adding 100 μL of ice cold precipitation solution (1 μM labelled pantothenic acid (di-β-alanine-13C6,15N2 calcium salt, Sigma, #705837) in acetonitrile). Afterwards the plate is centrifuged (4° C., 3220 G, 10 min) and supernatants (50 μL) are collected into another 96-deep-well plate and mixed (10 sec, 1400 rpm) with 150 μL ice cold formic acid (0.1%, Carl Roth GmbH+Co.KG, #CP03.1). The formation of pantothenic acid is detected by RapidFire Mass Spectrometry. A TripleQuad 6500+ (ABSciex, Germany) is equipped with an LC-1290 system, a RapidFire autosampler (Agilent, Germany) and a C18 cartridge Type C 12 μL (Agilent Cat #G9526-80000). Mobile phase A is consisting of 0.09% formic acid and 0.01% trifluoroacetic acid in water and mobile phase B of 0.09% formic acid and 0.01% trifluoroacetic acid in acetonitrile/methanol/water=47.5/47.5/5.

Row | SMILES | IC50 [1] [nM] | IC50 (Pantetheinase (vanin)) [nM]
1 | CN(C(=O)C1CC1)[C@H]1CCN(C(=O)c2ccc(NCc3cccnc3)nc2)C1 [Example 1.8] | 0.12 | 1.69
2 | Cc1ccncc1CNc1ccc(C(=O)N2CC[C@H](N(C)C(=O)C3(C)CCC3)C2)cn1 [Example 1.9] | 0.12 | 1.9
3 | COc1ccncc1CNc1ccc(C(=O)N2CC[C@H](N(C)C(=O)C3CC3)C2)cn1 [Example 1.10] | 0.14 | 1.24
4 | CC(=O)N(C)[C@H]1CCN(C(=O)c2ccc(N[C@@H](C)c3ccc(Cl)nc3)nc2)C1 [Example 1.11, N-[(3S)-1-(6-{[(1S)-1-(6-chloropyridin-3-yl)ethyl]-amino}pyridine-3-carbonyl)pyrrolidin-3-yl]-N-methylacetamide] | 0.15 | 1.9
5 | CC(=O)N(C)[C@H]1CCN(C(=O)c2ccc(N[C@@H](C)c3cccc(C#N)c3)nc2)C1 [Example 1.12] | 0.16 | 6.13
6 | CN(C(=O)C1(C)CCC1)[C@H]1CCN(C(=O)c2ccc(NCc3cccnc3)nc2)C1 [Example 1.14] | 0.18 | 8.7
7 | Cc1ncccc1CNc1ccc(C(=O)N2CC[C@H](N(C)C(=O)C3CC3)C2)cn1 [Example 1.15] | 0.21 | 1.52
8 | CC(=O)N(C)[C@H]1CCN(C(=O)c2ccc(NC3(c4cncc(C(F)(F)F)c4)CC3)nc2)C1 [Example 1.17] | 0.21 | 5.59
9 | Cc1ncccc1CNc1ccc(C(=O)N2CC[C@H](N(C)C(=O)C3(C)CCC3)C2)cn1 [Example 1.18] | 0.22 | 1.77
10 | CC(=O)N(C)[C@H]1CCN(C(=O)c2ccc(N[C@@H](C)c3cccc(S(N)(=O)=O)c3)nc2)C1 [Example 1.19] | 0.22 | 2.63
11 | CC(=O)N(C)[C@H]1CCN(C(=O)c2ccc(NC3(c4ccc(C(F)(F)F)nc4)CC3)nc2)C1 [Example 1.20] | 0.23 | 4.74
12 | CNS(=O)(=O)c1cccc(C(C)Nc2ccc(C(=O)N3CC[C@H](N(C)C(C)=O)C3)cn2)c1 (some centres unmarked) [Example 1.21] | 0.24 | 0.8
13 | COc1ccncc1CNc1ccc(C(=O)N2CC[C@H](N(C)C(=O)C3(C)CCC3)C2)cn1 [Example 1.22] | 0.24 | 2.51
14 | CNS(=O)(=O)c1cccc([C@H](C)Nc2ccc(C(=O)N3CC[C@H](N(C)C(C)=O)C3)cn2)c1 [Example 1.23] | 0.26 | 5.21
15 | CN(C(=O)C1CC1)[C@H]1CCN(C(=O)c2ccc(NCc3ccc(N)nc3)nc2)C1 [Example 1.24] | 0.27 | 1.44
16 | CN(C(=O)C1(C)CCC1)[C@H]1CCN(C(=O)c2ccc(NC3CCc4[nH]ncc43)nc2)C1 (some centres unmarked) [Example 1.26] | 0.29 | 1.98
17 | CC(=O)N(C)[C@H]1CCN(C(=O)c2ccc(NC(C)c3cccc(S(N)(=O)=O)c3)nc2)C1 (some centres unmarked) [Example 1.27] | 0.3 | 4.39
18 | C[C@@H](Nc1ccc(C(=O)N2CC[C@H](N(C)C(=O)C3(C)CCC3)C2)cn1)c1cnccn1 [Example 1.30] | 0.4 | 3.28
19 | CN(C(=O)C1(C)CCC1)[C@H]1CCN(C(=O)c2ccc(NCc3ccc(N)nc3)nc2)C1 [Example 1.31] | 0.44 | 2.63

Row | SMILES | IC50 [1] [nM] | IC50 (Pantetheinase (vanin)) [nM]
20 | CN(C(=O)C1CC1)[C@H]1CCN(C(=O)c2ccc(NCc3cnccc3C(F)(F)F)nc2)C1 [Example 1.33] | 0.46 | 2.05
21 | CC(=O)N(C)[C@H]1CCN(C(=O)c2ccc(NC3CCc4ncccc43)nc2)C1 (some centres unmarked) [Example 1.37] | 0.61 | 1.07
22 | CN(C(=O)C1CC1)[C@H]1CCN(C(=O)c2ccc(NCc3cncc(F)c3)nc2)C1 [Example 1.38] | 0.65 | 5.19
23 | CC(=O)N(C)[C@H]1CCN(C(=O)c2ccc(NC(C)c3cccc(C#N)c3)nc2)C1 (some centres unmarked) [Example 1.40] | 0.67 | 2.1
24 | CC(=O)N(C)[C@H]1CCN(C(=O)c2ccc(NCc3cccs3)nc2)C1 [Example 1.42] | 0.85 | 9.88
25 | CC(=O)N(C)[C@H]1CCN(C(=O)c2ccc(NCc3cncc(F)c3)nc2)C1 [Example 1.43] | 0.86 | 3.24
26 | CN(C)c1ccc(CNc2ccc(C(=O)N3CC[C@H](N(C)C(=O)C4CC4)C3)cn2)cn1 [Example 1.44] | 0.91 | 7.03
27 | COc1ccc(CNc2ccc(C(=O)N3CC[C@H](N(C)C(=O)C4CC4)C3)cn2)cn1 [Example 1.47] | 0.97 | 5.93
28 | CN(C(=O)C1CC1)[C@H]1CCN(C(=O)c2ccc(NC(C)(C)c3ccccc3)nc2)C1 [Example 2.1, N-Methyl-N-[(3S)-1-{6-[(2-phenylpropan-2-yl)amino]pyridine-3-carbonyl}pyrrolidin-3-yl]cyclopropanecarboxamide] | 0.06 | 3.57
29 | CN(C(=O)C1CCC1)[C@H]1CCN(C(=O)c2ccc(NC(C)(C)c3ccccc3)nc2)C1 [Example 2.2] | 0.07 | 4.49
30 | CN(C(=O)C1CCC1)[C@H]1CCN(C(=O)c2ccc(NCc3cccnc3)nc2)C1 [Example 3.1, N-Methyl-N-[(3S)-1-(6-{[(pyridin-3-yl)methyl]amino}pyridine-3-carbonyl)pyrrolidin-3-yl]cyclobutanecarboxamide] | 0.07 | 1.33
31 | C[C@H](Nc1ccc(C(=O)N2CCC(C)(C#N)C2)cn1)c1ccccc1 (some centres unmarked) [Example 3.2] | 0.19 | 1.94
32 | CC1(C#N)CCN(C(=O)c2ccc(NCc3cccnc3)nc2)C1 (centres unmarked) [Example 3.3] | 0.24 | 1.6
33 | CC(=O)N(C)[C@H]1CCN(C(=O)c2ccc(NCc3ccc(Cl)cc3)nc2)C1 [Example 4.1, N-[(3S)-1-(6-{[(4-Chlorophenyl)methyl]amino}pyridine-3-carbonyl)pyrrolidin-3-yl]-N-methylacetamide] | 0.68 | 5.88
34 | CC(C)(Nc1ccc(C(=O)N2CC[C@H](N3CCCC3=O)C2)cn1)c1ccccc1 [Example 4.2] | 0.1 | 2.43
35 | CC(C)(Nc1ccc(C(=O)N2CC[C@H](N3CCOC3=O)C2)cn1)c1ccccc1 [Example 4.3] | 0.12 | 2.32
36 | CC(=O)N(C)[C@H]1CCN(C(=O)c2ccc(NC(C)(C)c3ccccc3)nc2)C1 [Example 4.4] | 0.12 | 1.34
37 | CN(C(=O)C1(C#N)CC1)[C@H]1CCN(C(=O)c2ccc(NC(C)(C)c3ccccc3)nc2)C1 [Example 4.5] | 0.14 | 1.27
